Assay type in all cases: biochemical
One assay addresses T1, MMP-1 (Homo sapiens, UniProt P03956).
T1 sequence (P03956 100-469): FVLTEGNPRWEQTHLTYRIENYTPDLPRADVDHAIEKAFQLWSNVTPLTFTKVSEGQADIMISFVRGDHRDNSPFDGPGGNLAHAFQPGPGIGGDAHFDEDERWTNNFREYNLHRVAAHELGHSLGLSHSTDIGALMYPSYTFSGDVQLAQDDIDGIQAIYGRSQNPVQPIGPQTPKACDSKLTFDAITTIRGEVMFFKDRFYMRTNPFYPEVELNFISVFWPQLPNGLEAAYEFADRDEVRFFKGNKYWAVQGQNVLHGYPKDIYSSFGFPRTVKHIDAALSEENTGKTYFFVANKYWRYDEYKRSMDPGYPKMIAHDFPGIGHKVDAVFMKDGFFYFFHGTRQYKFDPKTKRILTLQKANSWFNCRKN
In words: MMP-1 inhibitory action (Type I collagen Activity Measurement kit, FITC-labeled collagen type I).

In a further assay the target is T2, Recombinant Human MMP-13 (Homo sapiens, UniProt P45452).
T2 construct: purchased R&D systems 511-MM
In words: MMP-13 inhibitory activity (MMP-13 specific fluorescent substrate with quencher). In short, it runs like this: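 Recombinant human MMP-13 with test compound, reaction started with quenched fluorogenic peptide 7-MCA-Pro-CHA-Gly-NVal-His-Ala-DPA in Tris-HCl buffer, 1 h at 25 °C, stopped with acetic acid. Fluorescence at Ex 325/Em 405 nm; % inhibition versus enzyme-free and inhibitor-free wells, reported as IC50 (μM).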

In a further assay the target is T3, aggrecanase-1 (Homo sapiens, UniProt O75173).
T3 sequence (O75173 213-837): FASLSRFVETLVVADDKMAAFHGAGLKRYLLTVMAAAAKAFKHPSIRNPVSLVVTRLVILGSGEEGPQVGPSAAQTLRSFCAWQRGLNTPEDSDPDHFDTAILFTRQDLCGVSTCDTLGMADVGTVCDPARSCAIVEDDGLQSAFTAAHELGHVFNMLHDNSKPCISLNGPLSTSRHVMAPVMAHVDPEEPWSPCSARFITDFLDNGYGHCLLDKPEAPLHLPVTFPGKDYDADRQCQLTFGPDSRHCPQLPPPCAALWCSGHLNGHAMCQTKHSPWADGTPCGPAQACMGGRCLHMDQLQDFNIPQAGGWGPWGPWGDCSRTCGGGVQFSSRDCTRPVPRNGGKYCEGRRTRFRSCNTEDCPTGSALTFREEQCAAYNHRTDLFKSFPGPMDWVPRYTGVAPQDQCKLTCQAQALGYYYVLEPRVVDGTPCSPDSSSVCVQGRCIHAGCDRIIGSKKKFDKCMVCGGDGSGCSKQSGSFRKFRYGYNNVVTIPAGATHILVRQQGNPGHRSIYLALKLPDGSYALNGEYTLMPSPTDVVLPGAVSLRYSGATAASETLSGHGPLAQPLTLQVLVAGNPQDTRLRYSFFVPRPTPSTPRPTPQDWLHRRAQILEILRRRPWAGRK
In words: Aggrecanase-1 inhibitory action (Particle Assay, GAG release from aggrecan-containing polyacrylamide particles). The essentials:
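Enzyme and compound incubated with aggrecan-containing polyacrylamide particles in Tris-HCl buffer at 37° C for 15 h. Released GAG in supernatant measured with 1,9-dimethylmethylene blue at 595 nm against chondroitin sulfate standard; % inhibition from enzyme-free and inhibitor-free wells, reported as TC50 (μM).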

Setting [1] is: MMP-1 inhibitory action, FITC-labeled collagen type I, 37° C. for 3 hr, read-out: IC50 MMP1 (Experimental Example 2).
[2] abbreviates: Recombinant Human MMP-13, fluorescent substrate, 25° C. for 1 h, read-out: IC50 MMP13 (Experimental Example 3).
The mark [3] stands for this setting: aggrecanase-1 inhibitory action, read-out: IC50 AG1 (Experimental Example 1).
Setting [4] is: Experimental Example 2, read-out: IC50 MMP1.
[5] abbreviates: Experimental Example 3, read-out: IC50 MMP13.
Where [6] appears, read: Experimental Example 1, read-out: IC50 AG1.

Experimental findings from patent US20080261994A1, “CYCLOPROPANE COMPOUNDS AND PHARMACEUTICAL USE THEREOF” (Japan Tobacco Inc., priority 2003, published 2008) are described below.

Like-named read-outs stand apart in the source and are kept apart here. Some results are limits rather than exact numbers.

For `Cc1cc(-c2ccc(S(=O)(=O)N[C@@]3(C(=O)O)C[C@@H]3c3ccccc3)s2)no1` [Example 2-85], the values for the IC50 on MMP-1 (setting [1]), on Recombinant Human MMP-13 (setting [2]) and at aggrecanase-1 (setting [3]) were at least 1 µM, below 0.1 µM and below 1 µM, respectively.

In the case of `CCc1cc(-c2ccc(S(=O)(=O)N[C@@]3(C(=O)O)C[C@@H]3c3ccccc3)s2)no1` [Example 2-92], the results for the IC50 on MMP-1 (setting [1]), at Recombinant Human MMP-13 (setting [2]) and on aggrecanase-1 (setting [3]) were below 1 µM, below 0.1 µM and below 0.1 µM, respectively.

As to `C[C@]1(c2ccccc2)C[C@@]1(NS(=O)(=O)c1ccc2c(c1)Cc1cc(Br)ccc1-2)C(=O)O` [Example 2-100], the IC50 on MMP-1 (setting [1]) was below 1 µM; on Recombinant Human MMP-13 (setting [2]) it was below 0.1 µM; on aggrecanase-1 (setting [3]), below 0.1 µM.

`CC(C)N1CCN(Cc2cccc([C@H]3C[C@@]3(NS(=O)(=O)c3ccc(-c4cc(C(F)(F)F)on4)s3)C(=O)O)c2)CC1` [Example 2-304]: the results for the 50% inhibitory concentration (IC50) on MMP-1 (setting [4]), at Recombinant Human MMP-13 (setting [5]) and on aggrecanase-1 (setting [6]) were at least 1 µM, below 1 µM and below 1 µM, respectively.

For `C[C@]1(c2ccccc2)C[C@@]1(NS(=O)(=O)c1ccc(N2CCC(F)(F)C2)s1)C(=O)O` [Example 2-467], the IC50 on MMP-1 (setting [4]) is at least 10 µM; on Recombinant Human MMP-13 (setting [5]), at least 10 µM; on aggrecanase-1 (setting [6]), at least 1 µM.

Take `Nc1ccc(S(=O)(=O)NC2(C(=O)O)CC2c2ccccc2)s1` (stereo not drawn) [Example 2-165]: the IC50 on MMP-1 (setting [1]) was at least 10 µM; at Recombinant Human MMP-13 (setting [2]), at least 1 µM; at aggrecanase-1 (setting [3]), at least 10 µM.

With `C[C@]1(c2ccccc2)C[C@@]1(NS(=O)(=O)c1ccc(-c2ccc(F)cn2)s1)C(=O)O` [Example 2-416], the values for the 50% inhibitory concentration (IC50) on MMP-1 (setting [4]), on Recombinant Human MMP-13 (setting [5]) and at aggrecanase-1 (setting [6]) were at least 1 µM, below 1 µM and below 1 µM, respectively.

Turning to `CC1[C@H](c2ccccc2)[C@]1(NS(=O)(=O)N1CCN(c2ccc(Cl)c(F)c2)CC1)C(=O)O` (stereo partly drawn) [Example 2-459], the 50% inhibitory concentration (IC50) on MMP-1 (setting [4]) was at least 1 µM; on Recombinant Human MMP-13 (setting [5]), below 0.1 µM; on aggrecanase-1 (setting [6]), below 1 µM.

Turning to `CC1[C@H](c2ccccc2)[C@]1(NS(=O)(=O)c1ccc(-c2cc(C(F)F)on2)s1)C(=O)O` (stereo partly drawn) [Example 2-353], the half-maximal inhibitory concentration (IC50) at MMP-1 (setting [4]) was below 1 µM; at Recombinant Human MMP-13 (setting [5]) it was below 0.1 µM; at aggrecanase-1 (setting [6]), below 0.1 µM.

`O=C(O)[C@]1(NS(=O)(=O)c2ccc(-c3cc(C(F)(F)F)on3)s2)C[C@@H]1c1ccc(CCCO)cc1` [Example 2-302]: the values for the IC50 on MMP-1 (setting [4]), at Recombinant Human MMP-13 (setting [5]) and on aggrecanase-1 (setting [6]) were below 1 µM, below 0.1 µM and below 0.1 µM, respectively.

In the case of `CC1[C@H](c2ccccc2)[C@]1(NS(=O)(=O)c1ccc(-n2cc(CO)cn2)s1)C(=O)O` (stereo partly drawn) [Example 2-561], the half-maximal inhibitory concentration (IC50) at MMP-1 (setting [4]), at Recombinant Human MMP-13 (setting [5]) and at aggrecanase-1 (setting [6]) was below 0.1 µM throughout.

With `O=C(O)[C@@]1(NS(=O)(=O)c2ccc3c(c2)Cc2cc(F)ccc2-3)C[C@H]1c1ccccc1` [Example 2-244], the figures for the half-maximal inhibitory concentration (IC50) on MMP-1 (setting [1]), on Recombinant Human MMP-13 (setting [2]) and at aggrecanase-1 (setting [3]) were at least 10 µM, below 1 µM and below 1 µM, respectively.

Turning to `O=C(O)[C@]1(NS(=O)(=O)c2ccc(-c3cc(C(F)(F)F)on3)s2)C[C@@H]1c1cccc(Br)c1` [Example 2-169], the 50% inhibitory concentration (IC50) at MMP-1 (setting [1]) was at least 1 µM; on Recombinant Human MMP-13 (setting [2]), below 0.1 µM; on aggrecanase-1 (setting [3]), below 0.1 µM.

Consider `CCCC(=O)c1ccc(S(=O)(=O)NC2(C(=O)O)CC2c2ccccc2)s1` (stereo not drawn) [Example 2-117], for which the IC50 at MMP-1 (setting [1]), on Recombinant Human MMP-13 (setting [2]) and at aggrecanase-1 (setting [3]) was at least 10 µM throughout.

Take `CC1[C@H](c2ccccc2)[C@]1(NS(=O)(=O)N1CCC(Oc2ccc(Cl)cc2)C1)C(=O)O` (stereo partly drawn) [Example 2-500]: the 50% inhibitory concentration (IC50) was at least 1 µM at MMP-1 (setting [4]), below 1 µM at Recombinant Human MMP-13 (setting [5]) and at least 1 µM on aggrecanase-1 (setting [6]).

What is called IC50 is the midpoint of a concentration-inhibition curve.
